Data from article PMC9856672, “SGC-CAMKK2-1: A Chemical Probe for CAMKK2” (Cells, 2023).

Experiments:
EPHB2 = molecular target: T1, EPHB2 (Homo sapiens, UniProt P29323); assay: KINOMEscan 1 μM, EPHB2; assay type: binding; details: 1000 nM; Entrez EPHB2; read-out: Percent Control
T1 construct: purchased Eurofins DiscoverX KINOMEscan
Source text: (§1) Supplement cells-12-00287-s001.zip/File S2. KinomeScan data for the CAMKK2 probe and negative control.xlsx, sheet "SGC-CAMKK2-1" | column: Percent Control

SRPK3 = molecular target: T2, SRPK3 (Homo sapiens, UniProt Q9UPE1); assay: DiscoverX KINOMEscan binding assay at 1 μM, SRPK3; details: Compound Concentration 1000 nM, read-out: Percent Control
T2 construct: purchased Eurofins DiscoverX KINOMEscan
Source text: as §1

SLK = molecular target: T3, SLK (Homo sapiens, UniProt Q9H2G2); assay: KINOMEscan 1 μM, SLK; assay type: binding; details: 1000 nM; Entrez SLK; read-out: Percent Control
T3 construct: purchased Eurofins DiscoverX KINOMEscan
Source text: as §1

[1] = molecular target: T4, RSK2(Kin.Dom.1-N-terminal) (Homo sapiens, UniProt P51812); assay: DiscoverX KINOMEscan binding assay at 1 μM, RSK2(Kin.Dom.1-N-terminal); details: RSK2(Kin.Dom.1-N-terminal) (RPS6KA3); Compound Concentration 1000 nM; read-out: Percent Control
T4 construct: RSK2(Kin.Dom.1-N-terminal); purchased Eurofins DiscoverX KINOMEscan
Source text: as §1

GRK1 = molecular target: T5, GRK1 (Homo sapiens, UniProt Q15835); assay: KINOMEscan 1 μM, GRK1; assay type: binding; details: 1000 nM; Entrez GRK1; read-out: Percent Control
T5 construct: purchased Eurofins DiscoverX KINOMEscan
Source text: as §1

[2] = molecular target: T6, RSK2(Kin.Dom.2-C-terminal) (Homo sapiens, UniProt P51812); assay: DiscoverX KINOMEscan binding assay at 1 μM, RSK2(Kin.Dom.2-C-terminal); details: RSK2(Kin.Dom.2-C-terminal) (RPS6KA3); Compound Concentration 1000 nM; read-out: Percent Control
T6 construct: RSK2(Kin.Dom.2-C-terminal); purchased Eurofins DiscoverX KINOMEscan
Source text: as §1

INSRR = molecular target: T7, INSRR (Homo sapiens, UniProt P14616); assay: KINOMEscan 1 μM, INSRR; assay type: binding; details: 1000 nM; Entrez INSRR; read-out: Percent Control
T7 construct: purchased Eurofins DiscoverX KINOMEscan
Source text: as §1

YANK2 = molecular target: T8, YANK2 (Homo sapiens, UniProt Q9NY57); assay: DiscoverX KINOMEscan binding assay at 1 μM, YANK2; details: YANK2 (STK32B); Compound Concentration 1000 nM; read-out: Percent Control
T8 construct: purchased Eurofins DiscoverX KINOMEscan
Source text: as §1

PIKFYVE = molecular target: T9, PIKFYVE (Homo sapiens, UniProt Q9Y2I7); assay: KINOMEscan 1 μM, PIKFYVE; assay type: binding; details: 1000 nM; Entrez PIKFYVE; read-out: Percent Control
T9 construct: purchased Eurofins DiscoverX KINOMEscan
Source text: as §1

WEE1 = molecular target: T10, WEE1 (Homo sapiens, UniProt P30291); assay: KINOMEscan 1 μM, WEE1; assay type: binding; details: 1000 nM; Entrez WEE1; read-out: Percent Control
T10 construct: purchased Eurofins DiscoverX KINOMEscan
Source text: as §1

[3] = molecular target: T11, JAK3(JH1domain-catalytic) (Homo sapiens, UniProt P52333); assay: KINOMEscan 1 μM, JAK3(JH1domain-catalytic); assay type: binding; details: 1000 nM; Entrez JAK3; read-out: Percent Control
T11 construct: JAK3(JH1domain-catalytic); purchased Eurofins DiscoverX KINOMEscan
Source text: as §1

MAP4K5 = molecular target: T12, MAP4K5 (Homo sapiens, UniProt Q9Y4K4); assay: KINOMEscan 1 μM, MAP4K5; assay type: binding; details: 1000 nM; Entrez MAP4K5; read-out: Percent Control
T12 construct: purchased Eurofins DiscoverX KINOMEscan
Source text: as §1

FLT3(ITD,D835V) = assay: KINOMEscan 1 μM, FLT3(ITD,D835V); assay type: binding, human; details: 1000 nM; Entrez FLT3
Source text: as §1

EPHA6 = molecular target: T13, EPHA6 (Homo sapiens, UniProt Q9UF33); assay: KINOMEscan 1 μM, EPHA6; assay type: binding; details: 1000 nM; Entrez EPHA6; read-out: Percent Control
T13 construct: purchased Eurofins DiscoverX KINOMEscan
Source text: as §1

TGFBR2 = molecular target: T14, TGFBR2 (Homo sapiens, UniProt P37173); assay: KINOMEscan 1 μM, TGFBR2; assay type: binding; details: 1000 nM; Entrez TGFBR2; read-out: Percent Control
T14 construct: purchased Eurofins DiscoverX KINOMEscan
Source text: as §1

EGFR(G719C) = molecular target: T15, EGFR(G719C) (Homo sapiens, UniProt P00533, G719C); assay: KINOMEscan binding assay at 1 μM, EGFR(G719C); details: Compound Concentration 1000 nM; read-out: Percent Control
T15 construct: purchased Eurofins DiscoverX KINOMEscan
Source text: (§2) Supplement cells-12-00287-s001.zip/File S2. KinomeScan data for the CAMKK2 probe and negative control.xlsx, sheet "SGC-CAMKK2-1N" | column: Percent Control

TAK1 = molecular target: T16, TAK1 (Homo sapiens, UniProt O43318); assay: KINOMEscan at 1 μM, TAK1; assay type: binding; details: 1000 nM, read-out: Percent Control
T16 construct: purchased Eurofins DiscoverX KINOMEscan
Source text: as §2

PIK3CA(I800L) = molecular target: T17, PIK3CA(I800L) (Homo sapiens, UniProt P42336, I800L); assay: KINOMEscan at 1 μM, PIK3CA(I800L); assay type: binding; details: 1000 nM, read-out: Percent Control
T17 construct: purchased Eurofins DiscoverX KINOMEscan
Source text: as §2

EGFR(G719S) = molecular target: T18, EGFR(G719S) (Homo sapiens, UniProt P00533, G719S); assay: KINOMEscan binding assay at 1 μM, EGFR(G719S); details: Compound Concentration 1000 nM; read-out: Percent Control
T18 construct: purchased Eurofins DiscoverX KINOMEscan
Source text: as §2

ABL1-phosphorylated = molecular target: T19, ABL1-phosphorylated (Homo sapiens, UniProt P00519); assay: KINOMEscan at 1 μM, ABL1-phosphorylated; assay type: binding; details: 1000 nM, read-out: Percent Control
T19 construct: purchased Eurofins DiscoverX KINOMEscan
Source text: as §2

MYO3A = molecular target: T20, MYO3A (Homo sapiens, UniProt Q8NEV4); assay: KINOMEscan at 1 μM, MYO3A; assay type: binding; details: 1000 nM, read-out: Percent Control
T20 construct: purchased Eurofins DiscoverX KINOMEscan
Source text: as §2

ROCK1 = molecular target: T21, ROCK1 (Homo sapiens, UniProt Q13464); assay: KINOMEscan at 1 μM, ROCK1; assay type: binding; details: 1000 nM, read-out: Percent Control
T21 construct: purchased Eurofins DiscoverX KINOMEscan
Source text: as §2

IKK-alpha = molecular target: T22, IKK-alpha (Homo sapiens, UniProt O15111); assay: KINOMEscan at 1 μM, IKK-alpha; assay type: binding; details: 1000 nM, read-out: Percent Control
T22 construct: purchased Eurofins DiscoverX KINOMEscan
Source text: as §2

BMX = molecular target: T23, BMX (Homo sapiens, UniProt P51813); assay: KINOMEscan at 1 μM, BMX; assay type: binding; details: 1000 nM, read-out: Percent Control
T23 construct: purchased Eurofins DiscoverX KINOMEscan
Source text: as §2

CSF1R = molecular target: T24, CSF1R (Homo sapiens, UniProt P07333); assay: KINOMEscan at 1 μM, CSF1R; assay type: binding; details: 1000 nM, read-out: Percent Control
T24 construct: purchased Eurofins DiscoverX KINOMEscan
Source text: as §2

CHEK1 = molecular target: T25, CHEK1 (Homo sapiens, UniProt O14757); assay: KINOMEscan at 1 μM, CHEK1; assay type: binding; details: 1000 nM, read-out: Percent Control
T25 construct: purchased Eurofins DiscoverX KINOMEscan
Source text: as §2

GRK2 = molecular target: T26, GRK2 (Homo sapiens, UniProt P25098); assay: KINOMEscan at 1 μM, GRK2; assay type: binding; details: 1000 nM, read-out: Percent Control
T26 construct: purchased Eurofins DiscoverX KINOMEscan
Source text: as §2

CDC2L2 = molecular target: T27, CDC2L2 (Homo sapiens, UniProt Q9UQ88); assay: KINOMEscan at 1 μM, CDC2L2; assay type: binding; details: 1000 nM, read-out: Percent Control
T27 construct: purchased Eurofins DiscoverX KINOMEscan
Source text: as §2

FER = molecular target: T28, FER (Homo sapiens, UniProt P16591); assay: KINOMEscan binding assay at 1 μM, FER; details: Compound Concentration 1000 nM; read-out: Percent Control
T28 construct: purchased Eurofins DiscoverX KINOMEscan
Source text: as §2

WNK1 = molecular target: T29, WNK1 (Homo sapiens, UniProt Q9H4A3); assay: KINOMEscan at 1 μM, WNK1; assay type: binding; details: 1000 nM, read-out: Percent Control
T29 construct: purchased Eurofins DiscoverX KINOMEscan
Source text: as §2

PLK4 = molecular target: T30, PLK4 (Homo sapiens, UniProt O00444); assay: KINOMEscan binding assay at 1 μM, PLK4; details: Compound Concentration 1000 nM; read-out: Percent Control
T30 construct: purchased Eurofins DiscoverX KINOMEscan
Source text: as §2

BIKE = molecular target: T31, BIKE (Homo sapiens, UniProt Q9NSY1); assay: KINOMEscan at 1 μM, BIKE; assay type: binding; details: 1000 nM, read-out: Percent Control
T31 construct: purchased Eurofins DiscoverX KINOMEscan
Source text: as §2

T12 sequence (Q9Y4K4 whole entry): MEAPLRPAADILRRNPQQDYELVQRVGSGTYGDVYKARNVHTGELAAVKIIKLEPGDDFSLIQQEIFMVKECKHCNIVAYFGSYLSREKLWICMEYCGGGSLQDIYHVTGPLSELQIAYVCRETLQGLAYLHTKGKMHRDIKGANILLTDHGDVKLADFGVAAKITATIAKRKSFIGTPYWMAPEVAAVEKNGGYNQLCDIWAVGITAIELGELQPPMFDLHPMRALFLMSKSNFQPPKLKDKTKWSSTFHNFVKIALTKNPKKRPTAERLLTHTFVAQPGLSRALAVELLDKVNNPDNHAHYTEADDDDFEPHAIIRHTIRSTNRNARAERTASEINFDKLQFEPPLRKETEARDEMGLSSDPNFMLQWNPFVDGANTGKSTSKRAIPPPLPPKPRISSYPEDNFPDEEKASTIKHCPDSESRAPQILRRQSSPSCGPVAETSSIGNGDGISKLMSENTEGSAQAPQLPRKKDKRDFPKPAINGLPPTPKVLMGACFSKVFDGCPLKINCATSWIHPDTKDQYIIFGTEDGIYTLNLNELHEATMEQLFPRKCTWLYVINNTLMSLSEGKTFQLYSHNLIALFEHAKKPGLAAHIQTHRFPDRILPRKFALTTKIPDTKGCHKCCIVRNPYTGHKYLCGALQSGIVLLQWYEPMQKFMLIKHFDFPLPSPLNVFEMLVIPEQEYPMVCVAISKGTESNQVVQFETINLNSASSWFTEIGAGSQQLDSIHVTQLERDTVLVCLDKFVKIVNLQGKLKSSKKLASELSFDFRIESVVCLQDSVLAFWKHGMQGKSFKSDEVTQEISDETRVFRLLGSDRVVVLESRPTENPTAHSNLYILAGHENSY
T8 sequence (Q9NY57 whole entry): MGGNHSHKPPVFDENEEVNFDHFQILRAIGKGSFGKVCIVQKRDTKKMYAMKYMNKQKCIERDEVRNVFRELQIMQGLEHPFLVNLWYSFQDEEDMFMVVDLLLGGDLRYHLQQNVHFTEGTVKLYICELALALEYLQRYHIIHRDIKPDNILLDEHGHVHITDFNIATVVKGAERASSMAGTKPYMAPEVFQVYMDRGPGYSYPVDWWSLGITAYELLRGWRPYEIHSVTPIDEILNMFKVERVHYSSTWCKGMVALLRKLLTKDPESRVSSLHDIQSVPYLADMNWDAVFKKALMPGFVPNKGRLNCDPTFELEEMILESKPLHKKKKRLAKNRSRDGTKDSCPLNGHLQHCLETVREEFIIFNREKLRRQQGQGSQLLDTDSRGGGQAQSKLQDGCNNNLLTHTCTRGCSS
T1 sequence (P29323 19-1055): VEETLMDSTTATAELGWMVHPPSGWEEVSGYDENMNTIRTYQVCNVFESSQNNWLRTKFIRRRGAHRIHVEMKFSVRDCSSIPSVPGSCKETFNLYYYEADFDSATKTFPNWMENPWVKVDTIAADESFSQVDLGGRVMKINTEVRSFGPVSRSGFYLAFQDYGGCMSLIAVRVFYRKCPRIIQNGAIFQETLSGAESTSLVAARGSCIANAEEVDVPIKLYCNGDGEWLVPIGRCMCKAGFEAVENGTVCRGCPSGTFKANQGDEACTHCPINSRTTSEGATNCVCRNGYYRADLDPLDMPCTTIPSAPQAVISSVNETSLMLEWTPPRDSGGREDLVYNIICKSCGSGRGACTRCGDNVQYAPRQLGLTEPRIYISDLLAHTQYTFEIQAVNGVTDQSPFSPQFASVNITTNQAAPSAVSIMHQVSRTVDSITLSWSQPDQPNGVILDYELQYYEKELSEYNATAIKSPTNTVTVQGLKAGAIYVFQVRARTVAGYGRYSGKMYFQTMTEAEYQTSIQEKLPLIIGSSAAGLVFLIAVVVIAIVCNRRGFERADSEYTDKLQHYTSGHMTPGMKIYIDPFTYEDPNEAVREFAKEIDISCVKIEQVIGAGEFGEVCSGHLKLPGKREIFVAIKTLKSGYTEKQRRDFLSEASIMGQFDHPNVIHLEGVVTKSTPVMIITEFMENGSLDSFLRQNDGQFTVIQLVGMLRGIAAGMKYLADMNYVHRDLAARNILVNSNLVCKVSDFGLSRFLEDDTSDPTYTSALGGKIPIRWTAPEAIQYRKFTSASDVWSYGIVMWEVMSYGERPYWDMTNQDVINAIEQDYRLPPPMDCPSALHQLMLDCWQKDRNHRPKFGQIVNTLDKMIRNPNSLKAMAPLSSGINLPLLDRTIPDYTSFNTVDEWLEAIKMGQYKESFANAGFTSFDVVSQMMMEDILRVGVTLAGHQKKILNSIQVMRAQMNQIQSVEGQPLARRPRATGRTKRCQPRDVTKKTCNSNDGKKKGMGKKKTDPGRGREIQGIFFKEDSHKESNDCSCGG
T19 sequence (P00519 whole entry): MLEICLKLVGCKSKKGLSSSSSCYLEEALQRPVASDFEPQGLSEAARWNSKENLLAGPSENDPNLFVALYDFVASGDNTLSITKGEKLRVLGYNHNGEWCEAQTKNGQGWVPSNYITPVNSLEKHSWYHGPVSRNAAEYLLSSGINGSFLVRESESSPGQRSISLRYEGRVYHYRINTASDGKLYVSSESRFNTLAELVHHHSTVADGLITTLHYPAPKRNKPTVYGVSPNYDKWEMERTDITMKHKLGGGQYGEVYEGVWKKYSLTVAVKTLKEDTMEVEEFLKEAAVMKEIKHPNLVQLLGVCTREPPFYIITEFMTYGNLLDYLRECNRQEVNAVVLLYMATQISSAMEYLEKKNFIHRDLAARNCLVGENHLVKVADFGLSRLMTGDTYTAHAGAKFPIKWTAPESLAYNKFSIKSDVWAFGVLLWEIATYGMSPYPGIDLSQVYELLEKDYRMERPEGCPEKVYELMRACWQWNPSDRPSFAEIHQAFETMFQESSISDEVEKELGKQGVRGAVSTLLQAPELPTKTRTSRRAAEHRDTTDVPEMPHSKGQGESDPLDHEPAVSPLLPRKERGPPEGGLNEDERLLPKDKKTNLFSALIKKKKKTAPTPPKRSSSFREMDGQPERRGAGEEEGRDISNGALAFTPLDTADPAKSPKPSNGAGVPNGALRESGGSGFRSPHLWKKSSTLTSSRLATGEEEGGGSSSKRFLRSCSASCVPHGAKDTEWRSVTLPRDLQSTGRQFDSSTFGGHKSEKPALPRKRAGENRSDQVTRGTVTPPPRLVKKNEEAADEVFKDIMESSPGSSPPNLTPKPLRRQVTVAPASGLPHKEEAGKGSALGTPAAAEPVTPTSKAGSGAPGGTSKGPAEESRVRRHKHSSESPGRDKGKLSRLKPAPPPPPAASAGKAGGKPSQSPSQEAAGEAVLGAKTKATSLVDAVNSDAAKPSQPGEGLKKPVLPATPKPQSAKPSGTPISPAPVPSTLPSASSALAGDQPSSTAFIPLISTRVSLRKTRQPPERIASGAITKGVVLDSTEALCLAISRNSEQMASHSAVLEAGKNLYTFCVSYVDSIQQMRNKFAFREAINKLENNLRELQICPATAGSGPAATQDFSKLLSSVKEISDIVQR
T24 sequence (P07333 20-972): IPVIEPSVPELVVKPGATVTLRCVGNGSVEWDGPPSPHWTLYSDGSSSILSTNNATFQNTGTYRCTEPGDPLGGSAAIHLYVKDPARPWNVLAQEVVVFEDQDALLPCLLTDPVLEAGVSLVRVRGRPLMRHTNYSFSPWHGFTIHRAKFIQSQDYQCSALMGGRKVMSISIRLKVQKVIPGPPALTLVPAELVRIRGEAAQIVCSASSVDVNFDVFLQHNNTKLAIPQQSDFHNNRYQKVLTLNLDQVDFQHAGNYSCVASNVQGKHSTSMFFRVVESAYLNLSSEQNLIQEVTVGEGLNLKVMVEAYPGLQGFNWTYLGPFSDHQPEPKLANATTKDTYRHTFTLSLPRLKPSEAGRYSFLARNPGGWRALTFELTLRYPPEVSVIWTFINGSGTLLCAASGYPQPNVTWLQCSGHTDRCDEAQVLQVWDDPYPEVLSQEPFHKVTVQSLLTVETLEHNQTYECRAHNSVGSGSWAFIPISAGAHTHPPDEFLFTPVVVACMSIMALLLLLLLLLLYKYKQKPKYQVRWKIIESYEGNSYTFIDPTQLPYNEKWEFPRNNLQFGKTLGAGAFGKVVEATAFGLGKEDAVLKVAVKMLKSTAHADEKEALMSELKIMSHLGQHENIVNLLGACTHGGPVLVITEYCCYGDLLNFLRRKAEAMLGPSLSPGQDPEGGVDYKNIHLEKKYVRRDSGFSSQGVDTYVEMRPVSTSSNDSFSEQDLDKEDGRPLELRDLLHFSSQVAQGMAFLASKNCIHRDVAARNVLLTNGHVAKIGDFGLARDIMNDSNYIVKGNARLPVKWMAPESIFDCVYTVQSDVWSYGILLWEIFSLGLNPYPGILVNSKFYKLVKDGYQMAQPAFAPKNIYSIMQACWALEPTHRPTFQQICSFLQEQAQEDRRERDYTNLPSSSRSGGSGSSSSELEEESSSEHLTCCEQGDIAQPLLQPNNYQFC
T26 sequence (P25098 whole entry): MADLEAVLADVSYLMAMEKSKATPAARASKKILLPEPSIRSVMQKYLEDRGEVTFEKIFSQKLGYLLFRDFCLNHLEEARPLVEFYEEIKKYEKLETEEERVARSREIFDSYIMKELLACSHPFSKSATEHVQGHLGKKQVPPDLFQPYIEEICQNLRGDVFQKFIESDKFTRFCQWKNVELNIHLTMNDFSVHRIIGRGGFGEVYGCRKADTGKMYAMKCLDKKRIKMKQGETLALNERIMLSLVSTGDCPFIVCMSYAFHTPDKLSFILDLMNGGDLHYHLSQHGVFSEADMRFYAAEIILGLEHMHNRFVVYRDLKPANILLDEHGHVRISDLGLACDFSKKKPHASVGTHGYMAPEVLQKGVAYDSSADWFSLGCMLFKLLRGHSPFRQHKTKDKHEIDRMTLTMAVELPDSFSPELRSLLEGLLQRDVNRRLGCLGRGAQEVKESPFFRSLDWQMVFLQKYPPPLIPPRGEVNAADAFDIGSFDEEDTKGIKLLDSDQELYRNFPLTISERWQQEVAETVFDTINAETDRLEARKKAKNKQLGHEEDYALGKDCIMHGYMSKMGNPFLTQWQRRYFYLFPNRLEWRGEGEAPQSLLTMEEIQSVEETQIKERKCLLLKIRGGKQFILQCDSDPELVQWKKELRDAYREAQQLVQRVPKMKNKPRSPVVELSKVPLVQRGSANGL

With `Cc1cccc(-c2cnc3occ(-c4ccc(C(=O)O)c(C5CCCC5)c4)c3c2)c1` [SGC-CAMKK2-1 (YL-36)] the remaining binding at 1 µM (EPHB2) was 100%, the remaining binding at 1 µM (SRPK3) was 100% and the remaining binding at 1 µM (SLK) was 85%. For the same compound, the remaining binding at 1 µM [1] was 100%, the remaining binding at 1 µM (GRK1) was 100% and the remaining binding at 1 µM [2] was 100%. For the same compound, the remaining binding at 1 µM (INSRR) was 88%, the remaining binding at 1 µM (YANK2) was 100% and the remaining binding at 1 µM (PIKFYVE) was 80%. The remaining binding at 1 µM (WEE1) was 82%, the remaining binding at 1 µM [3] was 100% and the remaining binding at 1 µM (MAP4K5) was 100%. For the same compound, the “Percent Control” value (FLT3(ITD,D835V)) was 88%, the remaining binding at 1 µM (EPHA6) was 100% and the remaining binding at 1 µM (TGFBR2) was 91%.

`O=C(O)c1ccc(-c2coc3ncc(-c4ccccc4)cc23)cc1Cl` [SGC-CAMKK2-1N (UNC-YL-83)] was tested, and the remaining binding at 1 µM (EGFR(G719C)) was 100%, the remaining binding at 1 µM (TAK1) was 62% and the remaining binding at 1 µM (PIK3CA(I800L)) was 87%. The remaining binding at 1 µM (EGFR(G719S)) was 100%, the remaining binding at 1 µM (ABL1-phosphorylated) was 69% and the remaining binding at 1 µM (MYO3A) was 72%. It also gave a remaining binding at 1 µM (ROCK1) of 79%, a remaining binding at 1 µM (IKK-alpha) of 75% and a remaining binding at 1 µM (BMX) of 77%. The remaining binding at 1 µM (CSF1R) was 100%, the remaining binding at 1 µM (CHEK1) was 91% and the remaining binding at 1 µM (GRK2) was 55%. It also gave a remaining binding at 1 µM (CDC2L2) of 100%, a remaining binding at 1 µM (FER) of 100% and a remaining binding at 1 µM (WNK1) of 66%. It also gave a remaining binding at 1 µM (PLK4) of 100% and a remaining binding at 1 µM (BIKE) of 94%.
